Measured values reported in PMC7217481, “Amino acids serve as an important energy source for adult flukes of Clonorchis sinensis” (PLoS Neglected Tropical Diseases, 2020).

Biological target: T1, rCsFBPase (Clonorchis sinensis, UniProt G7YVB4)
T1 construct: gene CLF_111764; GenBank id is printed for the qPCR primers and is a genome scaffold
T1 sequence (G7YVB4 1-346): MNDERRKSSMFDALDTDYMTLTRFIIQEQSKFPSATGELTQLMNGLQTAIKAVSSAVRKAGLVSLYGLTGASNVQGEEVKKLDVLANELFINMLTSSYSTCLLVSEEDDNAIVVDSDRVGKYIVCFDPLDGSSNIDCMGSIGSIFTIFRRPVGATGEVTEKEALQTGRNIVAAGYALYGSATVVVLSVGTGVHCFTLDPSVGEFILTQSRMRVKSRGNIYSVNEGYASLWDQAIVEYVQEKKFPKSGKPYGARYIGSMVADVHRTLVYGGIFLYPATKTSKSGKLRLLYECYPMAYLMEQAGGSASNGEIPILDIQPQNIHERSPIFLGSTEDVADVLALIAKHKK
Assay: coupled G6PDH / phosphoglucose isomerase assay, NADP+ reduction at […] nm
Type: biochemical

| Structure (SMILES) | IC50 [µM] |
| --- | --- |
| CC(C)Cc1sc(N)nc1-c1ccc(P(=O)(O)O)o1 [MB05032, [5-[2-amino-5-(2-methylpropyl)-4-thiazolyl]-2-furanyl] phosphonic acid] | 4.9 |
| Nc1ncnc2c1ncn2[C@@H]1O[C@H](COP(=O)(O)O)[C@@H](O)[C@H]1O [AMP] | 262 |
